The values below come from ChEMBL document CHEMBL5042478, “Design, Synthesis, and Evaluation of VHL-Based EZH2 Degraders to Enhance Therapeutic Activity against Lymphoma” (J Med Chem, 2021).

Holding throughout (type): cell-based
Test [1] deals with T1, Protein cereblon/Histone-lysine N-methyltransferase EZH2 (Homo sapiens) (UniProt Q15910+Q96SW2). The test is described as follows: Protac activity at CRBN E3 ligase/EZH2 in human 22Rv1 cells assessed as inhibition of H3K27me3 at 0.3 uM incubated for 48 hrs by Western blot analysis. Background: A western blot detects proteins with antibodies after separation by electrophoresis.
T1 sequence (Q15910 whole entry, looked up): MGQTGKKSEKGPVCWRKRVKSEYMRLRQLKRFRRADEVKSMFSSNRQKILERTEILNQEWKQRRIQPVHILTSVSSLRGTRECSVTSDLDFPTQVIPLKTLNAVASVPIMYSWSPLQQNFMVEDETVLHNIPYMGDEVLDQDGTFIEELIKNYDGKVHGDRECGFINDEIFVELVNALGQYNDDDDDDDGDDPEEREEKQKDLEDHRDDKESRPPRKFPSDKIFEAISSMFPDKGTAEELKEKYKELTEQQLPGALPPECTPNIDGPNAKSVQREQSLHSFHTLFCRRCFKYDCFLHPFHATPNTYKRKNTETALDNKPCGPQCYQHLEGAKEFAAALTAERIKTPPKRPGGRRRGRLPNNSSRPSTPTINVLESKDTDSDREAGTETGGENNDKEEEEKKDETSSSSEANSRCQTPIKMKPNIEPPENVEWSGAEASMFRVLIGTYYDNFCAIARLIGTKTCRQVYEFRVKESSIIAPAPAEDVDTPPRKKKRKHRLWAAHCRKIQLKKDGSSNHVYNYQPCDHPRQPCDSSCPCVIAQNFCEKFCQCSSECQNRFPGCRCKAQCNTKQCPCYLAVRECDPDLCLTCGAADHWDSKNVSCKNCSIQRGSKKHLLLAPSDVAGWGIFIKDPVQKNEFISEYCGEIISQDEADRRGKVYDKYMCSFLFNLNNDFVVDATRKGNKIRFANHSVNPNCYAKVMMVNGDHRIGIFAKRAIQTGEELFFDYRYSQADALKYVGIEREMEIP
T1 sequence (Q96SW2 whole entry, looked up): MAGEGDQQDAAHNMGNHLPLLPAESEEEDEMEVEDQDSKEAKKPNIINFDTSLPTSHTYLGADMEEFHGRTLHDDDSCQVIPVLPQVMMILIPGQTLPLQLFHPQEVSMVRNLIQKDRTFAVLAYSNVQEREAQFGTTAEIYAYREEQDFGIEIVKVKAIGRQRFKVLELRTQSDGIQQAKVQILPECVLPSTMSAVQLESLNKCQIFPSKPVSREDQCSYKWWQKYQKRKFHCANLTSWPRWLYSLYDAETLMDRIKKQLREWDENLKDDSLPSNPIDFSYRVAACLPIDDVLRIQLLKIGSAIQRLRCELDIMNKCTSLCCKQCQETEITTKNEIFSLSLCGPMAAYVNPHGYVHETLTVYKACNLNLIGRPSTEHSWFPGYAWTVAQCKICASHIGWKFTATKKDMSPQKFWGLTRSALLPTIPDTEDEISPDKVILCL

Test [2] has as its target T1, Protein cereblon/Histone-lysine N-methyltransferase EZH2 (Homo sapiens). In words: Protac activity at CRBN E3 ligase/EZH2 in human 22Rv1 cells assessed as degradation of EZH2 at 3 uM incubated for 48 hrs by Western blot analysis.
The target is the same in test [3]. In words: Protac activity at CRBN E3 ligase/EZH2 in human 22Rv1 cells assessed as degradation of EZH2 at 1 uM incubated for 48 hrs by Western blot analysis.
The target is the same in test [4]. The test is described as follows: Protac activity at CRBN E3 ligase/EZH2 in human 22Rv1 cells assessed as inhibition of H3K27me3 at 3 uM incubated for 48 hrs by Western blot analysis.
Test [5] shares this target. In words: Protac activity at CRBN E3 ligase/EZH2 in human 22Rv1 cells assessed as inhibition of H3K27me3 at 1 uM incubated for 48 hrs by Western blot analysis.
For test [6] the target is unchanged. The test is described as follows: Protac activity at CRBN E3 ligase/EZH2 in human 22Rv1 cells assessed as degradation of EZH2 at 0.3 uM incubated for 48 hrs by Western blot analysis.
For test [7], the target named is T2, von Hippel-Lindau disease tumor suppressor/Histone-lysine N-methyltransferase EZH2 (Homo sapiens) (UniProt Q15910+P40337). The test is described as follows: Protac activity at VHL/EZH2 in human 22Rv1 cells assessed as reduction in H3K27me3 level at 1 uM incubated for 48 hrs by Western blot analysis.
T2 sequence (P40337 whole entry, looked up): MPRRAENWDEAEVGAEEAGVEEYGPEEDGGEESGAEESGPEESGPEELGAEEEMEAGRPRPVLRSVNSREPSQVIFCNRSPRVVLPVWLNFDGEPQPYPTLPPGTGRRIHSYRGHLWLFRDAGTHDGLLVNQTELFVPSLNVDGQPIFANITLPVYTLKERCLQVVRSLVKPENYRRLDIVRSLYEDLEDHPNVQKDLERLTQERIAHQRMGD
T2 sequence (Q15910 whole entry, looked up): as the sequence (Q15910 whole entry, looked up) above
The target in test [8] is T2, von Hippel-Lindau disease tumor suppressor/Histone-lysine N-methyltransferase EZH2 (Homo sapiens). In words: Protac activity at VHL/EZH2 in human 22Rv1 cells assessed as reduction in EZH2 level at 1 uM incubated for 48 hrs by Western blot analysis.

Molecules are shown by their SMILES. Calls of active or inactive are those of the source. No cut-off for these calls is given here.

Consider `CCN(c1cc(-c2ccc(C(=O)NCCOCCOCCOCCOc3cccc4c3C(=O)N(C3CCC(=O)NC3=O)C4=O)cc2)cc(C(=O)NCc2c(C)cc(C)[nH]c2=O)c1C)C1CCOCC1` (stereo unspecified), for which the outcome in test [1], in test [2], in test [3] and in test [6] was inactive. The outcome in test [4] and in test [5] was Active.

As to `CCN(c1cc(-c2ccc(C(=O)NCCOCCOCC(=O)N[C@H](C(=O)N3C[C@H](O)C[C@H]3C(=O)NCc3ccc(-c4scnc4C)cc3)C(C)(C)C)cc2)cc(C(=O)NCc2c(C)cc(C)[nH]c2=O)c1C)C1CCOCC1`, the result in test [7] was Active.

Take `CCN(c1cc(-c2ccc(C(=O)NCCOCCOCCOCC(=O)N[C@H](C(=O)N3C[C@H](O)C[C@H]3C(=O)NCc3ccc(-c4scnc4C)cc3)C(C)(C)C)cc2)cc(C(=O)NCc2c(C)cc(C)[nH]c2=O)c1C)C1CCOCC1`: the result in test [7] and in test [8] was inactive.

Take `CCN(c1cc(-c2ccc(C(=O)NCCCCNc3cccc4c3C(=O)N(C3CCC(=O)NC3=O)C4=O)cc2)cc(C(=O)NCc2c(C)cc(C)[nH]c2=O)c1C)C1CCOCC1` (stereo unspecified): the result in test [1], in test [4] and in test [5] was Active. Besides, the result in test [2], in test [3] and in test [6] was inactive.

On to `CCN(c1cc(-c2ccc(C(=O)NCCCCCCNC(=O)COc3cccc4c3C(=O)N(C3CCC(=O)NC3=O)C4=O)cc2)cc(C(=O)NCc2c(C)cc(C)[nH]c2=O)c1C)C1CCOCC1` (stereo unspecified), for which the result in test [1], in test [4] and in test [5] was Active. Moreover, the outcome in test [2], in test [3] and in test [6] was inactive.

`CCN(c1cc(-c2ccc(C(=O)NCCOCCOCCOCCOCC(=O)N[C@H](C(=O)N3C[C@H](O)C[C@H]3C(=O)NCc3ccc(-c4scnc4C)cc3)C(C)(C)C)cc2)cc(C(=O)NCc2c(C)cc(C)[nH]c2=O)c1C)C1CCOCC1`: the result in test [7] and in test [8] was inactive.

With `CCN(c1cc(-c2ccc(C(=O)NCCOCCNc3cccc4c3C(=O)N(C3CCC(=O)NC3=O)C4=O)cc2)cc(C(=O)NCc2c(C)cc(C)[nH]c2=O)c1C)C1CCOCC1` (stereo unspecified), the result in test [1], in test [4] and in test [5] was Active. Further, the result in test [2], in test [3] and in test [6] was inactive.

With `CCN(c1cc(-c2ccc(C(=O)NCCCCCCCCNC(=O)COc3cccc4c3C(=O)N(C3CCC(=O)NC3=O)C4=O)cc2)cc(C(=O)NCc2c(C)cc(C)[nH]c2=O)c1C)C1CCOCC1` (stereo unspecified), the outcome in test [1], in test [2], in test [3], in test [5] and in test [6] was inactive. For the same compound, the result in test [4] was Active.

As for `CCN(c1cc(-c2ccc(C(=O)NCCOCCOCCOc3cccc4c3C(=O)N(C3CCC(=O)NC3=O)C4=O)cc2)cc(C(=O)NCc2c(C)cc(C)[nH]c2=O)c1C)C1CCOCC1` (stereo unspecified), the result in test [1], in test [2], in test [3], in test [4], in test [5] and in test [6] was inactive.
